Source: patent publication US8841333B2, “Methods for treating nephrolithiasis” (Takeda Pharmaceuticals U.S.A., Inc., priority 2005, dated 2014)

Experiment: Double-blind 4-week study plus open-label extension of febuxostat in hyperuricemic subjects with gout and a history of nephrolithiasis
Format: in vivo, human
Protocol: Eighteen (18) hyperuricemic subjects with gout and a history of nephrolithiasis in their medical history were examined. Specifically, these eighteen subjects were part of a double-blind (DB) four (4) week study in which they received 40, 80 or 120 mg once daily (hereinafter referred to as “QD”) of 2-[3-cyano-4-(2-methylpropoxy)phenyl]-4-methylthiazole-5-carboxylic acid (hereinafter called “febuxostat”) or a placebo, followed by an open-label (OL) extension study of febuxostat 80 mg QD titrated to 40 mg or 120 mg QD of febuxostat based on serum uric acid levels and adverse events. The subjects were predominantly male (specifically, sixteen (16)) Caucasian, with a mean age of 55 years. Eleven (11) of the subjects had gout for more than 10 years, five (5) subjects had gout for between 5 to 10 years and two (2) subjects had gout for between 1 to 5 years. Overall, subject experienced between 1 and 20 attacks over a 2 to 45 year period prior to baseline. Twelve (12) of the subjects were classified as renally impaired (their creatinine clearance was <80 ml/minute). Six (6) subjects were considered to be uric acid overproducers (urinary uric acid excretion was greater than 800 mg/day). Comorbid conditions in these subjects included the following: hyperlipidemia (78%), hypertension (72%), obesity (56%) and coronary artery disease (17%). The mean serum urate for these subjects at baseline was 10.0 mg/dL. All subjects completed this DB study. Fifteen (15) subjects rolled over to the OL study with thirteen (13) completing treatment for a duration of greater than thirty (30) months. The majority of subjects (11/13) received daily febuxostat in the amount of 80 mg QD with two (2) subjects having their dose titrated to febuxostat 120 mg QD as per study protocol because of a post-baseline serum urate of ≧6.0 mg/dL.

With `Cc1nc(-c2ccc(OCC(C)C)c(C#N)c2)sc1C(=O)O` [febuxostat, 2-[3-cyano-4-(2-methylpropoxy)phenyl]-4-methylthiazole-5-carboxylic acid] the “subjects reporting kidney stones” value (DB and OL portions, greater than 30 months of febuxostat treatment, three stones in total, one occurred on placebo, all calcium oxalate) was 2 subjects out of the 18 subjects, the adverse events (DB and OL study, febuxostat 40-120 mg QD) was “self-limiting and transient” and the “mean reduction in serum urate” value (at last visit versus baseline, febuxostat 40, 80 or 120 mg QD) was 47%. The “mean serum urate at last visit” value (hyperuricemic gout subjects with history of nephrolithiasis, febuxostat 40, 80 or 120 mg QD, baseline mean serum urate 10.0 mg/dL) was 5.2 mg/dL.
